{"source": "patent US20210196766A1", "about": "“DESIGNED BACTERIAL COMPOSITIONS AND USES THEREOF” (Seres Therapeutics, Inc., priority 2019, published 2021)", "key": {"[1]": {"system": "HDAC enzymes (HeLa nuclear extract)", "assay": "HDAC inhibition assay of bacterial supernatants (HDAC-Glo I/II, HeLa nuclear extract)", "assay_type": "biochemical"}, "[2]": {"system": "primary human colon epithelial cell monolayer", "assay": "Primary epithelial cell monolayer barrier integrity assay (IFN-γ, FITC-dextran)", "conditions": "for restoration of barrier integrity in the presence of IFN-γ: metabolites, starting at a concentration of about 5 mM", "protocol": "The assays were performed using a primary epithelial cell monolayer barrier integrity assay. […] The addition of interferon-gamma (IFN-γ) disrupts the tight junctions of the epithelial monolayer and induces apoptosis of epithelial cells. The leakiness of the membrane can be assessed by adding FITC-dextran to the apical side of the apparatus and measuring how rapidly it can pass to the basolateral compartment. A leaky monolayer will allow FITC-dextran to the basal side of the apparatus more quickly than a monolayer with an intact monolayer.\nBriefly, the barrier integrity assay was conducted as follows. […] Colon organoids were harvested and trypsinized into a suspension containing few cell clusters and seeded onto Matrigel coated transwell inserts (Corning) at a density of 100,000 cells per insert in 50% L-WRN medium supplemented with 10 μM Y-27632 (Millipore Sigma). […] These primarily stem cell population was differentiated into colonocytes by switching the culture medium to 5% L-WRN for 48 hours. After 24 hours of differentiation, specific SCFA or 5% bacterial culture supernatant treatments were added to apical interface in 100 μL of 5% L-WRN medium and 5-25 ng/ml INFγ (Peprotech), depending on the experiment, was added in 175 μL of 5% L-WRN medium to the basolateral interface and incubated for 48 hours at 37° C. After the 48 hour incubation, colonic epithelial monolayer permeability was assessed by adding 10 μL of 10 ng/ml FITC-Dextran (4 kDa, Sigma) to the apical interface, the organoids were incubated for 1 hour and then 100 μL of medium was collected from the basolateral compartment of each transwell and transferred to a 96 well plate for fluorescence detection."}, "HT29 cells": {"system": "HT29 cells", "assay": "Anti-inflammatory assay in IECs: TNF-α-driven IL-8 secretion by HT29 cells", "assay_type": "cell-based, human", "conditions": "metabolites"}, "[3]": {"assay": "GC-MS of short-, medium- and branched-chain fatty acids in supernatants", "conditions": "single strain supernatants", "excerpt": "FIG. 18 provides a table listing bacterial species and the short chain fatty acids (SCFAs), medium chain fatty acids (MCFAs), and branched chain fatty acids (BCFAs) produced by each of the species. […] The limit of detection for each of the fatty acids is provided in the row labeled “Limit of Detection (LOD).” The SCFAs measured included: acetic acid, propanoic acid, and butanoic acid. The MCFAs measured included: pentanoic acid, hexanoic acid, heptanoic acid. The BCFAs measured included: 2-methyl-propanopic acid, 3-methyl-butanoic acid, and 4-methyl-pentaoic acid.\nAs described supra, certain tryptophan (Trp) metabolites were associated with remission in patients treated with an HHSP. Accordingly, Applicant tested various bacterial species for the presence of SCFA or tryptophan metabolites in their supernatants. The presence of the tryptophan metabolites was determined using a colorimetric assay for detection of indolic compounds (Indole Reagent, Anaerob Systems). Indole produces a light blue color in this assay, while other Trp metabolites produce purple color. The presence of SCFAs were tested using the HDAC assay (described supra). Supernatants of selected strains that were identified as producers of Trp metabolites by the colorimetric indole assay, and/or producers of SCFAs by the HDAC assay were further analyzed by GC-MS to identify the specific metabolites produced."}}, "note": "Read-outs that look alike come from different tables or passages of the source.", "data": [{"compound": "Clostridium sp 7 2 43FAA", "values": [{"measurement": "HDAC cluster assignment", "setting": "[1]; pattern of HDAC inhibition across nutrient sources", "value": 5}, {"measurement": "HDAC Inhibition in any C source (25/18% cutoff)", "setting": "[1]; supernatants of strains grown in PY medium with one of seven C sources at 0.5%", "value": "1 (If a strain exhibits HDACi activity of at least 0.25 in any nutrient, or 0.18 in fucose, it is considered to have HDACi activity and it is marked with “1”)"}]}, {"compound": "O=C(O)CCc1c[nH]c2ccccc12", "note": "[3-indolepropionic acid]", "values": [{"measurement": "restoration of barrier integrity in the presence of IFN-γ", "setting": "[2]", "value": "restored barrier integrity"}]}, {"compound": "CCCC(=O)O", "note": "[butyrate]", "values": [{"measurement": "decrease of permeability", "setting": "[2]; 5 mM, positive control", "value": 50, "unit": "%"}]}, {"compound": "CC(=O)O", "note": "[acetate]", "values": [{"measurement": "TNF-α-dependent IL-8 secretion", "setting": "HT29 cells", "value": "reduced levels of TNF-α-dependent IL-8 secretion"}]}, {"compound": "Clostridium disporicum", "values": [{"measurement": "HDAC cluster assignment", "setting": "[1]", "value": 0}]}, {"compound": "Clostridium clostridioforme", "values": [{"measurement": "HDAC cluster assignment", "setting": "[1]", "value": 6}]}, {"compound": "Parabacteroides distasonis", "values": [{"measurement": "HDAC cluster assignment", "setting": "[1]", "value": 3}]}, {"compound": "Clostridium tertium", "values": [{"measurement": "HDAC cluster assignment", "setting": "[1]", "value": 5}]}, {"compound": "CCC(=O)O", "note": "[propionate]", "values": [{"measurement": "restoration of barrier integrity in the presence of IFN-γ", "setting": "[2]", "value": "restored barrier integrity"}, {"measurement": "TNF-α-dependent IL-8 secretion", "setting": "HT29 cells", "value": "reduced levels of TNF-α-dependent IL-8 secretion"}]}, {"compound": "Clostridium glycolicum", "values": [{"measurement": "hexanoate production", "setting": "[3]", "value": "Hexanoate producing"}]}, {"compound": "Clostridium mayombei", "values": [{"measurement": "HDAC cluster assignment", "setting": "[1]", "value": 2}]}]}
